Measured values: patent publication US10646565B2, “Treatment of alzheimer'S disease (AD) with an aluminum salt” (AFFIRIS AG, priority 2014, dated 2020)
Entries after “also recorded” stand apart in the source; their conditions may differ.

Columns and labels:
patients with early AD [1] = experiment: AFF006 clinical trial: patient disposition, reason for discontinuation; format: in vivo, human
Protocol: Data supporting the invention are derived from a randomized clinical trial in early AD patients. The study (AFF006; Eudract: 2009-016504-22) randomized early AD patients into 5 treatment arms. Patients of 2 study arms received either 1 mg aluminium or 2 mg aluminium. In total, 99 early AD patients were enrolled into the 2 study arms. Participation of a given patient lasted 18 months.
AFF006 was conducted as a randomized, placebo-controlled, parallel group, double-blind, multi-center phase II study and assessed the clinical and immunological activity as well as the safety and tolerability of repeated s.c. administrations of i.a. aluminium (different doses) in patients with early AD, as defined in the protocol. It was performed in a total of 6 countries: Austria, France, Germany, Slovakia, Czech Republic and Croatia.
The clinical trial comprised 10 regular outpatient visits and 6 telephone interviews. Up to four weeks before start of treatment, a screening visit (Visit 1) was performed to ensure suitability of the patients for the clinical trial and to establish the patients' baseline characteristics. Following screening, eligible patients were randomly allocated to the treatment groups. After randomization at week 0, patients received 6 injections with either 1 or 2 mg aluminium. Injections were applied s.c. by the investigator at weeks 0, 4, 8, 12, 40 and 65 (Visit 2, 3, 4, 5, 7 and 9).
adverse events (AEs) and serious adverse events (SAEs) (number of patients who withdrew due to AEs; reason for withdrawal)

patients with early AD [2] = experiment: AFF006 clinical trial: MRI volume-based morphometry of hippocampus; format: in vivo, human; details: 2 mg group of patients, FIG. 4
Excerpt: EMEA and FDA criteria recommend newer techniques, such as MRI, especially atrophy of entorhinal or (para-) hippocampal cortex. With the present invention, PET (Positron emission tomography)-MRI was applied. More specifically, volume of right hippocampus (important for learning and memory of material that is difficult to verbalise) is used according to the present invention as significant AD biomarker for treatment success.
Hippocampus (left and right), and whole lateral ventricle ROIs were delineated on an anatomical MRI template in order to generate the atlas for volumetric measures. The volumes of the hippocampus and lateral ventricles for each subject were determined using a fully-automated method which combines transformations derived from the nonlinear registration of the atlas labels to individual subject scans and subject-specific image information (Collins et al., J. Comput. Assist. Tomogr., 18: 192-205, 1994). Lateral ventricle and hippocampal segmentations that failed post-processing QC review were manually corrected. The total intracranial volume (TIV) was estimated from the brain mask generated during pre-processing and the average TIV (TIVavg) for each subject was determined by averaging the estimated TIV across visits. […]

human Aβ1-40/42 = experiment: ELISA reactivity of vaccination induced Abs towards human Aβ1-40/42 in Tg2576-mice; format: in vivo; details: 6x s.c. at 4-week intervals, plasma at sacrification, background 1/100, FIG. 6B
Protocol: Alum doses used were equivalent to 2 mg/ml. Vaccination induced Abs were measured in plasma samples taken at sacrification (SeqID 1 (n=10), SeqID (n=8), KLH-Alum (n=10) and Alum only (n=8)). Samples were analyzed for their concentration of IgG Abs against specific peptides. Values depicted are the titer calculated as OD max/2 (at 405 nm) plus SEM. […] Background for this assay was set to 1/100, indicated by black lines and an asterisk in A+B.

[3] = test system: respective immunizing peptide; experiment: ELISA titer of vaccination induced IgG Abs against immunizing peptide in Tg2576-mice; format: in vivo; details: 6x s.c. at 4-week intervals, plasma at sacrification, background 1/100, FIG. 6A
Protocol: Alum doses used were equivalent to 2 mg/ml. Vaccination induced Abs were measured in plasma samples taken at sacrification (SeqID 1 (n=10), […], KLH-Alum (n=10) and Alum only (n=8)). Samples were analyzed for their concentration of IgG Abs against specific peptides. Values depicted are the titer calculated as OD max/2 (at 405 nm) plus SEM. IgG response towards the respective immunizing peptide (SeqID 1: anti SeqID 1; SeqID 2: anti SeqID 2, KLH-Alum: anti KLH, Alum: anti AD02); B) Reactivity towards human Aβ1-40/42 after immunization. […] Background for this assay was set to 1/100, indicated by black lines and an asterisk in A+B.
Substrates used include human (BACHEM, CH) Aβ1-40/42 (at 5 μg/ml), KLH (1 μg/ml) and peptide-Bovine serum albumin (BSA) conjugates (SeqID 1 and SeqID 2, 1 μM). Optical density (OD) was measured at 405 nm using a micro-well reader (Tecan, CH). ODmax/2 was calculated.
To test the immunogenicity of two Aβ targeting vaccines SeqID 1-KLH-Alum and SeqID 2-KLH Alum in comparison to KLH-Alum and Alum (Aluminium-oxyhydroxide) only, Tg2576-mice were injected 6×, s.c., at 4-week intervals with either conjugate-vaccine containing 30 μg net peptide, equivalent doses of KLH formulated with Alum or Alum only. […] Vaccination induced Abs were measured in plasma samples taken at sacrification (SeqID 1 (n=10), SeqID 2 (n=8), KLH-Alum (n=10) and Alum only (n=8)).

[4] = aluminium oxyhydroxide; cited from earlier work
Ovalbumin = biological target: T1, Ovalbumin (Gallus gallus, UniProt P01012); details: pH 7.4; cited from earlier work
T1 sequence (P01012 1-386): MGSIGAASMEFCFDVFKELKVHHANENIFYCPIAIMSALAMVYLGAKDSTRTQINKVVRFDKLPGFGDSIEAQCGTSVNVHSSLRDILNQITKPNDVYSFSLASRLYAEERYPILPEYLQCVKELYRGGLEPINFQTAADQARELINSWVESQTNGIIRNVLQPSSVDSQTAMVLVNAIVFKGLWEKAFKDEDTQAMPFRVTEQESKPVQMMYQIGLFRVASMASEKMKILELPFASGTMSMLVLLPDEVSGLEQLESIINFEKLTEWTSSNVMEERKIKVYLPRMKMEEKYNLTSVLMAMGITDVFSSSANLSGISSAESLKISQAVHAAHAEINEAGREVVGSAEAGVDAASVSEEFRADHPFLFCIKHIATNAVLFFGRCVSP

BSA = BSA (Bos taurus, UniProt P02769); details: pH 7.4; cited from earlier work
Sequence of BSA (P02769 25-607): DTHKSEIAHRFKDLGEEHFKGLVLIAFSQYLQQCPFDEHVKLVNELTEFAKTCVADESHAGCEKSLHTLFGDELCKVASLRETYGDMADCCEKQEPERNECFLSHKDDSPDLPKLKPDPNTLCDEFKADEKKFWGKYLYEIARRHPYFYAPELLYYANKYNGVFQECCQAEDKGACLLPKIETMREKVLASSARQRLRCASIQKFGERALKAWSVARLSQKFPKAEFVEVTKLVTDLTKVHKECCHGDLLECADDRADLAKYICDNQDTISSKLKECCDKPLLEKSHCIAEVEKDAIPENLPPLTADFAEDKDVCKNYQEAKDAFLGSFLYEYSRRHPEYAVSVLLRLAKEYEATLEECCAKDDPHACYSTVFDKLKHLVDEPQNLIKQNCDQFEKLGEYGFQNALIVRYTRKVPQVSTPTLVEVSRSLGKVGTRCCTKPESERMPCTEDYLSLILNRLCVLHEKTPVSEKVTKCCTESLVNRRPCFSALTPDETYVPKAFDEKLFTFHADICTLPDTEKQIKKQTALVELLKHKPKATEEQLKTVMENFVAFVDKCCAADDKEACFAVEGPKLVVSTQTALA

Tg2576 mice = experiment: Contextual fear conditioning (CFC) in Tg2576 mice; details: 6 monthly s.c. injections, Alum equivalent to 2 mg/ml

aluminium oxyhydroxide
Reason for Discontinuation from the Study: Death: subjects % (patients with early AD [1]; 1 mg s.c., N = 48): (4.2%) | Reason for Discontinuation from the Study: Death: subjects n (patients with early AD [1]; 1 mg s.c., N = 48): 2 | Reason for Discontinuation from the Study: Death: subjects % (patients with early AD [1]; 2 mg s.c., N = 51): (0.0%) | Reason for Discontinuation from the Study: Death: subjects n (patients with early AD [1]; 2 mg s.c., N = 51): 0 | MRI data (volume of right hippocampus) (patients with early AD [2]): statistically significant disease modifying effect | Abs reactivity towards human Aβ1-40/42 (human Aβ1-40/42): did not elicit signals above background; also recorded: do not show reactivity above background | IgG titer towards the peptide used for immunization (ODmax/2) [3]: did not elicit signals above background | point of zero charge [4]: ~11 pH | maximal binding capacity to Ovalbumin (pI 4.6) (Ovalbumin): 1.6±0.1 mg protein/mg aluminum | maximal binding capacity to BSA (pI 4.9) (BSA): 2.2±0.1 mg protein/mg aluminum | contextual memory and learning (CFC, % of time freezing) (Tg2576 mice; FIG. 7, listed as Alum): showed similar effects as detectable with Aβ targeting vaccines | contextual memory and learning (CFC, % of time freezing) (Tg2576 mice; FIG. 7, listed as aluminium-oxyhydroxide): lower cognitive decline significantly
